According to patent US10130642B2, “Neprilysin inhibitors” (THERAVANCE BIOPHARMA R&D IP, LLC, priority 2011, dated 2018):

Target: human NEP (Homo sapiens (Human), UniProt P08473)
Test: In vitro enzyme inhibition assay, inhibitor potencies at human NEP
Conditions: not given

Sequence of human NEP (P08473 52-750): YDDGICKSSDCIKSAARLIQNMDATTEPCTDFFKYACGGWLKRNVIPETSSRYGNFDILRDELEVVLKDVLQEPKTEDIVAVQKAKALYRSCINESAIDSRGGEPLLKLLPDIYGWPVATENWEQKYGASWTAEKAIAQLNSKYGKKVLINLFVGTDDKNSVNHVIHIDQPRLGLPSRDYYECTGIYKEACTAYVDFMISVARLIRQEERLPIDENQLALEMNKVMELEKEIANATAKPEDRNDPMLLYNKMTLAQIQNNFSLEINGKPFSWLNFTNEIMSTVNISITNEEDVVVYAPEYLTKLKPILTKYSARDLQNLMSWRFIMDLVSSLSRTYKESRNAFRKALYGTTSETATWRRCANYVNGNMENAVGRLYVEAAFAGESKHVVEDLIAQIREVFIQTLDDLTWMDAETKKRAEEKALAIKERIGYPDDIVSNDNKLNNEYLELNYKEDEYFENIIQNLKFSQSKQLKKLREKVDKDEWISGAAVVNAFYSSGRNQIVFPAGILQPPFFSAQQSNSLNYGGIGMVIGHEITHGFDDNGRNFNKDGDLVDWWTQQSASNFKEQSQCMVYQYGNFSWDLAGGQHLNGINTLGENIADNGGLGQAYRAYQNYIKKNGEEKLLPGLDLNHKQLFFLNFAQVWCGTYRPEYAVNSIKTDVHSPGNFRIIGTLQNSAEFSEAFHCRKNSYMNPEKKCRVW

SMILES	Ki
O=C(N[C@H](Cc1ccc(-c2ccccc2)cc1)C[C@@H](CO)C(=O)O)c1c[nH]c(O)n1 [Example 4-31, (2S,4S)-5-Biphenyl-4-yl-4-[(2-hydroxy-1H-imidazole-4-carbonyl)-amino]-2-hydroxymethyl-pentanoic acid]	12.6 to 100 nM
O=C(NC(Cc1ccc(-c2ccccc2)cc1)C[C@@H](CO)C(=O)O)c1cc(F)c2nn[nH]c2c1 (stereo partly drawn) [Example 4-33, (S)-5-Biphenyl-4-yl-4-[(7-fluoro-3H-benzotriazole-5-carbonyl)-amino]-2-hydroxymethyl-pentanoic acid]	≤ 1 nM
O=C(N[C@H](Cc1ccc(-c2cccc(Cl)c2)cc1)C[C@@H](CO)C(=O)O)c1ccc2nnn(O)c2c1 [Example 4-34, (2S,4S)-5-(3′-Chloro-biphenyl-4-yl)-4-[(3-hydroxy-3H-benzotriazole-5-carbonyl)-amino]-2-hydroxymethyl-pentanoic acid]	≤ 1 nM
O=C(NC(Cc1ccc(-c2ccccc2)cc1)C[C@H](CO)C(=O)O)c1cc(Cl)c2nc[nH]c2c1 (stereo partly drawn) [Example 4-36, (R)-5-Biphenyl-4-yl-4-[(7-chloro-3H-benzoimidazole-5-carbonyl)-amino]-2-hydroxymethyl-pentanoic acid]	1.26 to 10 nM
Cc1nc2c(Cl)cc(C(=O)NC(Cc3ccc(-c4ccccc4)cc3)C[C@H](CO)C(=O)O)cc2[nH]1 (stereo partly drawn) [Example 4-38, (R)-5-Biphenyl-4-yl-4-[(7-chloro-2-methyl-3H-benzoimidazole-5-carbonyl)-amino]-2-hydroxymethyl-pentanoic acid]	12.6 to 100 nM
O=C(NC(Cc1ccc(-c2ccccc2)cc1)C[C@@H](CO)C(=O)O)c1cnc2nn[nH]c2c1 (stereo partly drawn) [Example 4-43, (S)-5-Biphenyl-4-yl-2-hydroxymethyl-4-[(1H-[1,2,3]triazolo[4,5-b]pyridine-6-carbonyl)-amino]-pentanoic acid]	1.26 to 10 nM
O=C(N[C@H](Cc1ccc(-c2ccccc2)cc1)C[C@@H](CO)C(=O)O)c1cc(O)no1 [Example 4-45, (2S,4S)-5-Biphenyl-4-yl-4-[(3-hydroxy-isoxazole-5-carbonyl)-amino]-2-hydroxymethyl-pentanoic acid]	≤ 1 nM
O=C(N[C@H](Cc1ccc(-c2ccccc2)cc1)C[C@@H](CO)C(=O)O)c1cnc(O)nc1 [Example 4-47, (2S,4S)-5-Biphenyl-4-yl-2-hydroxymethyl-4-[(2-hydroxy-pyrimidine-5-carbonyl)-amino]-pentanoic acid]	≤ 1 nM
C[C@@](CO)(C[C@@H](Cc1ccc(-c2ccccc2)cc1)NC(=O)c1nc(Cl)n[nH]1)C(=O)O [Example 6-1, (2S,4R)-5-Biphenyl-4-yl-4-[(5-chloro-2H-[1,2,4]triazole-3-carbonyl)-amino]-2-hydroxymethyl-2-methyl-pentanoic acid]	1.26 to 10 nM
C[C@@](CO)(C[C@@H](Cc1ccc(-c2ccccc2)cc1)NC(=O)c1nc(O)n[nH]1)C(=O)O [Example 6-2, (2S,4R)-5-Biphenyl-4-yl-2-hydroxymethyl-4-[(5-hydroxy-2H-[1,2,4]triazole-3-carbonyl)-amino]-2-methyl-pentanoic acid]	12.6 to 100 nM
C[C@@](CO)(C[C@@H](Cc1ccc(-c2ccccc2)cc1)NC(=O)c1cn(Cc2ccccc2)nn1)C(=O)O [Example 6-6, (2S,4R)-4-[(1-Benzyl-1H-[1,2,3]triazole-4-carbonyl)-amino]-5-biphenyl-4-yl-2-hydroxymethyl-2-methyl-pentanoic acid]	12.6 to 100 nM
CC(=O)c1cc(C(=O)N[C@H](Cc2ccc(-c3ccccc3)cc2)C[C@@](C)(CO)C(=O)O)[nH]n1 [Example 6-16, (2S,4R)-4-[(5-Acetyl-2H-pyrazole-3-carbonyl)-amino]-5-biphenyl-4-yl-2-hydroxymethyl-2-methyl-pentanoic acid]	12.6 to 100 nM
C[C@@](CO)(C[C@@H](Cc1ccc(-c2ccccc2)cc1)NC(=O)c1cc(O)n[nH]1)C(=O)O [Example 6-17, (2S,4R)-5-Biphenyl-4-yl-2-hydroxymethyl-4-[(5-hydroxy-2H-pyrazole-3-carbonyl)-amino]-2-methyl-pentanoic acid]	1.26 to 10 nM
C[C@@](CO)(C[C@@H](Cc1ccc(-c2ccc(F)cc2)cc1)NC(=O)c1cnn[nH]1)C(=O)O [Example 8-3, (2S,4R)-5-(4′-Fluorobiphenyl-4-yl)-2-hydroxymethyl-2-methyl-4-[(3H-[1,2,3]triazole-4-carbonyl)-amino]-pentanoic acid]	12.6 to 100 nM
CC(C)(c1ccc(-c2ccccc2)cc1)[C@H](C[C@@H](CO)C(=O)O)NC(=O)c1cc(O)no1 [Example 9, (2S,4S)-5-Biphenyl-4-yl-4-[(3-hydroxy-isoxazole-5-carbonyl)-amino]-2-hydroxymethyl-5-methyl-hexanoic Acid]	≤ 1 nM

Other lines, results leading:

Ki	SMILES
12.6 to 100 nM	C[C@](CO)(C[C@@H](Cc1ccc(-c2ccccc2)cc1)NC(=O)c1cnn[nH]1)C(=O)O [Example 6-3, (2R,4R)-5-Biphenyl-4-yl-2-hydroxymethyl-2-methyl-4-[(3H-[1,2,3]triazole-4-carbonyl)-amino]-pentanoic acid]
≤ 1 nM	C[C@@](CO)(C[C@@H](Cc1ccc(-c2ccccc2)cc1)NC(=O)c1cn(O)nn1)C(=O)O [Example 6-4, (2S,4R)-5-Biphenyl-4-yl-2-hydroxymethyl-4-[(1-hydroxy-1H-[1,2,3]triazole-4-carbonyl)-amino]-2-methyl-pentanoic acid]
≤ 1 nM	CC(CO)(C[C@@H](Cc1ccc(-c2ccccc2)cc1)NC(=O)c1cc(C(=O)O)n[nH]1)C(=O)O (stereo partly drawn) [Example 6-15, 5-((R)-1-Biphenyl-4-ylmethyl-3-carboxy-4-hydroxy-3-methyl-butylcarbamoyl)-1H-pyrazole-3-carboxylic acid]
≤ 1 nM	C[C@@](CO)(C[C@@H](Cc1ccc(-c2ccccc2)cc1)NC(=O)c1cnc(O)nc1)C(=O)O [Example 6-18, (2S,4R)-5-Biphenyl-4-yl-2-hydroxymethyl-4-[(2-hydroxy-pyrimidine-5-carbonyl)-amino]-2-methyl-pentanoic acid]
≤ 1 nM	C[C@@](CO)(C[C@@H](Cc1ccc(-c2ccccc2)cc1)NC(=O)c1cc(O)no1)C(=O)O [Example 6-19, (2S,4R)-5-Biphenyl-4-yl-4-[(3-hydroxy-isoxazole-5-carbonyl)-amino]-2-hydroxymethyl-2-methyl-pentanoic acid]
≤ 1 nM	C[C@@](CO)(C[C@@H](Cc1ccc(-c2cccc(F)c2)cc1)NC(=O)c1cnn[nH]1)C(=O)O [Example 8-1, (2S,4R)-5-(3′-Fluorobiphenyl-4-yl)-2-hydroxymethyl-2-methyl-4-[(3H-[1,2,3]triazole-4-carbonyl)-amino]-pentanoic acid]
≤ 1 nM	C[C@@](CO)(C[C@@H](Cc1ccc(-c2ccccc2F)cc1)NC(=O)c1cnn[nH]1)C(=O)O [Example 8-2, (2S,4R)-5-(2′-Fluorobiphenyl-4-yl)-2-hydroxymethyl-2-methyl-4-[(3H-[1,2,3]triazole-4-carbonyl)-amino]-pentanoic acid]
≤ 1 nM	C[C@@](CO)(C[C@@H](Cc1ccc(-c2ccccc2F)cc1)NC(=O)c1cn(O)nn1)C(=O)O [Example 8-4, (2S,4R)-5-(2′-Fluoro-biphenyl-4-yl)-2-hydroxymethyl-4-[(1-hydroxy-1H-[1,2,3]triazole-4-carbonyl)-amino]-2-methyl-pentanoic acid]
≤ 1 nM	C[C@@](CO)(C[C@@H](Cc1ccc(-c2ccccc2F)cc1)NC(=O)c1coc(=O)[nH]1)C(=O)O [Example 8-5, (2S,4R)-5-(2′-Fluoro-biphenyl-4-yl)-2-hydroxymethyl-2-methyl-4-[(2-oxo-2,3-dihydro-oxazole-4-carbonyl)-amino]-pentanoic acid]
≤ 1 nM	C[C@@](CO)(C[C@@H](Cc1ccc(-c2ccccc2F)cc1)NC(=O)c1c[nH]c(=O)o1)C(=O)O [Example 8-6, (2S,4R)-5-(2′-Fluoro-biphenyl-4-yl)-2-hydroxymethyl-2-methyl-4-[(2-oxo-2,3-dihydro-oxazole-5-carbonyl)-amino]-pentanoic acid]
≤ 1 nM	CC(C)(c1ccc(-c2ccccc2)cc1)[C@H](C[C@@H](CO)C(=O)O)NC(=O)c1cn(O)nn1 [Example 10-1, (2S,4S)-5-Biphenyl-4-yl-2-hydroxymethyl-4-[(1-hydroxy-1H-[1,2,3]triazole-4-carbonyl)-amino]-5-methyl-hexanoic acid]
≤ 1 nM	CC(C)(c1ccc(-c2ccccc2)cc1)[C@H](C[C@@H](CO)C(=O)O)NC(=O)c1cnn[nH]1 [Example 10-2, (2S,4S)-5-Biphenyl-4-yl-2-hydroxymethyl-5-methyl-4-[(3H-[1,2,3]triazole-4-carbonyl)-amino]-hexanoic acid]

Same assay, conditions: pKi values at human NEP; recombinant human NEP, fluorogenic peptide substrate, 37° C.

pKi	SMILES
≥9.0	C[C@@](CO)(C[C@@H](Cc1ccc(-c2cccc(F)c2)cc1)NC(=O)c1cc(C(=O)O)n[nH]1)C(=O)O [Example 7, 5-[(1R,3S)-3-Carboxy-1-(3′-fluorobiphenyl-4-ylmethyl)-4-hydroxy-3-methyl-butylcarbamoyl]-1H-pyrazole-3-carboxylic Acid]
